Measured values: patent US10028966B2 (Avalyn Pharma Inc., priority 2014, dated 2018)
Marks after values point to notes of the source that are not given here.

Experiments:
[1] = Modeled human inhaled aerosol pirfenidone pharmacokinetics (FIG. 2, FIG. 5, Table 28)
Source text: More specifically, the oral route requires a large oral dose to achieve a relatively small lung tissue Cmax. Delivering a similar Cmax without the large systemic dose provides increased efficacy. However, further escalating this direct lung dose, which results in increased systemic exposure, reduces this effect. […] Specifically, a high lung tissue Cmax is important for lung tissue anti-fibrotic efficacy. However, this positive effect appears dependent upon an associated small plasma AUC; the larger the plasma AUC, the lower the efficacy. […] In practice, the oral route of administration is not capable of meeting this U-shaped-restricted dose response. Safety and tolerability prevent further dose escalation of the 801 mg/dose oral medicine (Esbriet®). […] To illustrate these findings, possible human lung tissue and plasma pharmacokinetics following tidal-breath-inhaled aerosol administration were again modeled (FIG. 5). […] These safety and/or tolerability restrictions may be associated with plasma AUC, plasma Cmax, gastrointestinal exposure or a combination of these events. […] However, this limitation could also be set as the plasma Cmax or a combination of these pharmacokinetic parameters.
Aerosol deliver parameters for the FIGS. 2 and 5 models were based on high-efficiency, mesh-based nebulizer characterization (Table 12). […] Respirable delivered dose (RDD) calculated by the product of fine particle fraction (FPF, %<5 microns) and inhaled mass. […] For this non-limiting example, a FPF of 78% and inhaled mass of 67% was used. Using these numbers, a 90 mg device-loaded dose may produce an RDD of about 47 mg (Table 26 and FIG. 2). […] For this non-limiting example, a FPF of 78% and inhaled mass of 67% was used. Using these numbers, a 230 mg device-loaded dose may produce an RDD of about 120 mg. […] This later dose was modeled to be delivered in 1 minute.
An additional clinical consideration is the rat plasma AUC showing non-efficacy in the bleomycin model. […] Only lower delivered doses show anti-fibrotic effect. Plasma AUCs obtained from higher intratracheal or oral doses appears to have similar non-efficacy or enhanced disease.

[2] = Osmolality determination and nebulization for taste testing, throat irritation and cough response; conditions: for Cough Response? / Throat Irritation?: nebulized
Source text: Selected formulations were subjected to osmolality determination and nebulization for taste testing and throat irritation and or cough response.

[3] = 43.7 mg/mL pirfenidone, 8% EtOH, 16% PG, 0 mM sodium saccharin, 76% phosphate buffer (5 mM), pH 7.0
[4] = 43.7 mg/mL pirfenidone, 8% EtOH, 16% PG, 0.3 mM sodium saccharin, 76% phosphate buffer (5 mM), pH 7.0
[5] = 27.2 mg/mL pirfenidone, 4% EtOH, 8% PG, 88% phosphate buffer (5 mM), pH 6.6
[6] = 34.7 mg/mL pirfenidone, 6% EtOH, 12% PG, 82% phosphate buffer (5 mM), pH 7.0

Compound: Cc1ccc(=O)n(-c2ccccc2)c1 [pirfenidone, 5-methyl-1-phenyl-2-(1H)-pyridone]
- lung tissue Cmax compared to 801 mg oral dose ([1]; modeled human, 2.5 mg RDD inhaled over 1 minute): equivalent
- plasma AUC0-18hrs ([1]; modeled human, 29 mg RDD, 3 minute tidal-inhaled nebulized dose): 13.4 µg·h/mL
- plasma AUC compared to 801 mg oral pirfenidone dose (with food) ([1]; modeled human, 120 mg RDD inhaled over 5 minutes): equivalent
- human lung tissue Cmax ([1]; modeled, 29 mg RDD, 3 minute tidal-inhaled nebulized dose): 43.2 mcg/gram lung tissue
- Osmolality [2, 3]: 3672 mOsmo/Kg
- Osmolality [2, 4]: 3672 mOsmo/Kg
- Osmolality ([2]; calculated, 27.2 mg/mL pirfenidone, 4% EtOH, 8% PG, 88% phosphate buffer (5 mM), pH 6.6): ~1830* mOsmo/Kg
- Osmolality ([2]; calculated, 34.7 mg/mL pirfenidone, 6% EtOH, 12% PG, 82% phosphate buffer (5 mM), pH 7.0): ~2750* mOsmo/Kg
- Cough Response? [2, 5]: No
- Throat Irritation? [2, 5]: No
- Cough Response? [2, 6]: No
- Throat Irritation? [2, 6]: No
- Cough Response? [2, 3]: No
- Throat Irritation? [2, 3]: No
- Cough Response? [2, 4]: No
- Throat Irritation? [2, 4]: No
